Source: publication PMC3804063 (Journal of medicinal chemistry, 2013)
Where “and” joins values, the source holds several entries; their conditions need not be identical. Equal entries are not always repeated. Entries after “also recorded” stand apart in the source; their conditions may differ.

Key:
CB1 S7.39A mutation = details: cited from earlier work
CB2 W5.43(194)Y mutation = details: cited from earlier work
[1] = tested on: CB2 receptor-transfected Chinese hamster cells; details: cited from earlier work
[2] = molecular target: HEK293 cells stably expressing CB2 (Homo sapiens, UniProt P34972); assay type: cell-based; details: 1 µM compound
CB2 S4.57(165)A mutation = details: cited from earlier work
CB2 W5.43A/F mutations = details: suggesting a misfolded protein; cited from earlier work
CB2 S4.53(161)A mutation = details: cited from earlier work
human CB2 receptors = human CB2 receptors (Homo sapiens, UniProt P34972); assay type: binding; details: ratio of Ki to Ki of 1
Sequence of human CB2 receptors (P34972 whole entry): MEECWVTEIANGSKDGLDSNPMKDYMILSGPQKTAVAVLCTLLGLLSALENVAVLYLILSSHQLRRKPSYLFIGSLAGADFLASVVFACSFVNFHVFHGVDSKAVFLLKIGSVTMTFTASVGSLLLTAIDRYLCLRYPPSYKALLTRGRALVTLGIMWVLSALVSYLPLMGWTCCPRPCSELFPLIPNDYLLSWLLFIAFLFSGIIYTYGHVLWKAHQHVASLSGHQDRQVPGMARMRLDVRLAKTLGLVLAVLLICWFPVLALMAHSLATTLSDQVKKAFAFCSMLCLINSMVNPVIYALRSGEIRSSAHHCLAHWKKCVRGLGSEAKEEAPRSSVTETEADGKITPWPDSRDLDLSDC

Sequence of HEK293 cells stably expressing CB2 (P34972 whole entry): as above

Row | SMILES | antagonism of CP55940 effect in the cAMP assay [2] | fold loss of CB2 affinity compared to 1 (human CB2 receptors) | other results
1 | CCCCCCC(C)(C)c1ccc([C@@H]2C[C@H](O)CC[C@H]2CCCO)c(O)c1 [CP-55,940] | – | – | effect of mutation on binding (CB1 S7.39A mutation): loss of binding
2 | Cc1ccc(Cn2nc(C(=O)N[C@@H]3C(C)(C)[C@@H]4CC[C@@]3(C)C4)cc2-c2ccc(Cl)c(C)c2)cc1 [Compound 1, N-[(1S)-endo-1,3,3-trimethylbicyclo[2.2.1]heptan2-yl]-5-(4-chloro-3-methylphenyl)-1-[(4-methylphenyl)methyl]-1H-pyrazole-3-carboxamide] | antagonize the effects of CP-55,940; also recorded: antagonize the cAMP effects of CP55940 | – | effect of mutation on binding (CB2 W5.43(194)Y mutation): decrease in the binding; effect on high constitutive activity of CB2 [1]: inverse agonist; effect of mutation on binding (CB2 S4.57(165)A mutation): abolished the binding; effect of mutation on binding (CB2 W5.43A/F mutations): no detectable binding; effect of mutation on binding (CB2 S4.53(161)A mutation): abolished the binding
3 | Cc1ccc(Cn2nc(/C=C/[C@@H]3C(C)(C)[C@@H]4CC[C@@]3(C)C4)cc2-c2ccc(Cl)c(C)c2)cc1 [Compound 2, 5-(4-Chloro-3-methylphenyl)-1-(4-methyl-benzyl)-3-[(E)-2-endo-(1,3,3-trimethyl-bicyclo[2.2.1]hept-2-yl)-vinyl]-1H-pyrazole] | lack antagonist properties | 236 fold | –
4 | Cc1ccc(Cn2cc(C(=O)N[C@@H]3C(C)(C)[C@@H]4CC[C@@]3(C)C4)cc2-c2ccc(Cl)c(C)c2)cc1 [Compound 3, 5-(4-Chloro-3-methyl-phenyl)-1-(4-methyl-benzyl)-1H-pyrrole-3-carboxylic acid (1,3,3-trimethyl-bicyclo[2.2.1]hept-2-yl)-amide] | more potent CB2 antagonist than 1; also recorded: antagonize the cAMP effects of CP55940 | 7 fold and 6.8 fold | –
5 | Cc1ccc(Cn2cc(/C=C/[C@@H]3C(C)(C)[C@@H]4CC[C@@]3(C)C4)cc2-c2ccc(Cl)c(C)c2)cc1 [Compound 4, 5-(4-Chloro-3-methylphenyl)-1-[(4-methylphenyl)methyl]-3-[(E)-2-[(1S,2S,4R)-1,3,3-trimethylbicyclo[2.2.1]heptan-2-yl]ethenyl]-1H-pyrrole] | lack antagonist properties | 547 fold | –
6 | Cc1ccc(Cn2nc(C(=O)N[C@@H]3C[C@@H]4CC[C@@]3(C)C4(C)C)cc2-c2ccc(Cl)c(C)c2)cc1 [Compound 5, 5-(4-Chloro-3-methylphenyl)-1-[(4-methylphenyl)methyl]-N-[(1S,2R,4S)-1,7,7-trimethylbicyclo[2.2.1]heptan-2-yl]-1H-pyrazole-3-carboxamide] | antagonize the cAMP effects of CP55940 | 13 fold | –
7 | Cc1cc(-c2cc(C(=O)N[C@@H]3C(C)(C)[C@@H]4CC[C@@]3(C)C4)nn2-c2ccccc2)ccc1Cl [Compound 6, 5-(4-Chloro-3-methylphenyl)-1-phenyl-N-{1,3,3-trimethylbicyclo[2.2.1]heptan-2-yl}-1H-pyrazole-3-carboxamide] | no antagonism; also recorded: lack antagonist properties | 42 fold | –
8 | CCCCCCC(C)(C)c1cc(O)c2c(c1)OC(C)(C)[C@@H]1CC=C(CO)C[C@@H]21 [HU210] | – | – | effect of mutation on binding (CB1 S7.39A mutation): reduction in binding
